According to patent US20260151379A1, “SALT TYPE AND CRYSTAL FORM OF COMPLEMENT FACTOR B INHIBITOR, AND PREPARATION METHOD THEREFOR AND APPLICATION THEREOF” (SHANGHAI MEIYUE BIOTECH DEVELOPMENT CO., LTD., priority 2022, published 2026):
Where two headings read alike, the source gives them in different places.

What was measured:
[1] = Liver microsomal stability experiment (monkey); type: in vitro ADME, cynomolgus monkey; conditions: monkey liver microsomes
Experimental: A 0.1 M solution of dipotassium phosphate in distilled water (containing 1 mM ethylenediaminetetraacetic acid) was taken. Then the pH was adjusted to 7.4 with a 0.1 M solution of potassium dihydrogen phosphate in distilled water (containing 1 mM ethylenediaminetetraacetic acid).
• Rat: SD Rat Liver Microsomes, Cat. No.: LM-DS-02M, RILD Research Institute for Liver Diseases (Shanghai) Co. Ltd. • Monkey: Cynomolgus Monkey Liver Microsomes, Cat. No.: LM-SXH-02M, RILD Research Institute for Liver Diseases (Shanghai) Co. Ltd. • Human: Pooled Human Liver Microsomes (Mongolian), Cat. No.: LM-R-02M, RILD Research Institute for Liver Diseases (Shanghai) Co. Ltd.
A 10 mM solution of each of the control compound and test compounds was prepared in DMSO. Then 10 μL of the solution was added to 190 μL of acetonitrile to form a 0.5 mM stock solution. 1.5 μL of the 0.5 mM stock solution was measured out, and […] of 20 mg/mL liver microsomes and 479.75 μL of the buffer were added. (The actual preparation amount can be adjusted according to use).
10 mg/mL of reduced coenzyme II (NADPH) was prepared in the buffer. A 96-well plate was placed on ice. Wells corresponding to different time points (0, 10, 30, 60 and 90 min, Non-NADPH) were set for each compound. […] The mixture was analyzed on an AB SCIEX ExionLC-Triple Quad 5500 high-performance liquid chromatograph-mass spectrometer. […]

Complement factor B = Complement factor B (Homo sapiens, UniProt P00751); experiment: Optical surface plasmon resonance (SPR) binding capacity assay
Complement factor B, sequence (P00751 26-764): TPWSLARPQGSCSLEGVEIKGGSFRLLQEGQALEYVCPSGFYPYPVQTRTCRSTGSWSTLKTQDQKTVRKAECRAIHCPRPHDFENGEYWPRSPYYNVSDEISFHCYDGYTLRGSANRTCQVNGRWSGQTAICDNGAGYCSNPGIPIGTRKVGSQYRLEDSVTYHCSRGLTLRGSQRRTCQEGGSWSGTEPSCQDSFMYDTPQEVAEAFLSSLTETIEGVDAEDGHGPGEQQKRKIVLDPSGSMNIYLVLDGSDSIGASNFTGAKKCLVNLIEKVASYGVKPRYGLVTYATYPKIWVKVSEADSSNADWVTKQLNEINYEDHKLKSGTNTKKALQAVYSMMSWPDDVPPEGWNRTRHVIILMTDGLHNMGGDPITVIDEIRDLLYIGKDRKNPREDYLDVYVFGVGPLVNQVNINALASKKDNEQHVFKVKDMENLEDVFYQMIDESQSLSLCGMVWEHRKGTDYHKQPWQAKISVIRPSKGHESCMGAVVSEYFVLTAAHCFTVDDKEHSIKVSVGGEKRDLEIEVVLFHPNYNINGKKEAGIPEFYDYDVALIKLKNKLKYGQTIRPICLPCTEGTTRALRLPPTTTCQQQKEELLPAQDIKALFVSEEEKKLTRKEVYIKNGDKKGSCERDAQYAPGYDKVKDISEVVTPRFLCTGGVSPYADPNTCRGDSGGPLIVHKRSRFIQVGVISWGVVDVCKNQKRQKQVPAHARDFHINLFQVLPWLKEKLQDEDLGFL
Experimental: An SPR experiment was carried out at 25° C. In the experiment, a PBS buffer supplemented with 0.05% (v/v) P20 and 5% DMSO was used as a running buffer, and the analytical instrument Biacore 8K of GE Healthcare was used. A CM7 chip (GE Healthcare) was activated with 400 mM EDC and 100 mM NHS at a flow rate of 30 μL/min for 420 s. […] Then the assay chip was treated with 1 M ethanolamine hydrochloride at a flow rate of 10 μL/min for 300 s for chip blocking. The concentration of the test compound was 500 μM, the binding time was 120 s, and the dissociation time was 300 s. Data analysis was performed using a 1:1 binding model (Biacore Insight Evaluation Software, Version 2.0.15.12933).

[2] = molecular target: T1, complement factor B in human serum (Homo sapiens, UniProt P00751); experiment: Complement hemolytic activity assay (rabbit erythrocytes, normal human serum); type: cell-based; conditions: versus control compound
T1 construct: from tissue; host or cells: normal human serum (NHS)
T1 sequence (P00751 26-764): as above
Experimental: Prior to the experiment, the optimal concentration of normal human serum (NHS) required to achieve 100% lysis of rabbit erythrocytes (REs) was obtained by titration testing. […] A GVB0 buffer containing 10 mM Mg-EGTA and containing NHS and RE but no test compound was used as a positive control group (100% lysis). A GVB0 buffer containing 10 mM Mg-EGTA and containing inactivated NHS (heated at 56° C. for 30 min or at 65° C. for 5 min) and RE but no test compound was used as a negative control group (0% lysis). […] Absorbance at 415 nm (A415) was measured using a microplate reader (Molecular Devices, SpectraMax i3X). IC50 values were calculated from percent hemolysis as a function of test compound concentration by non-linear regression.

[3] = test system: Streptococcus-induced rheumatoid arthritis; experiment: Streptococcus-induced rheumatoid arthritis (RA) model in rats; type: in vivo; conditions: female Lewis rats, 15 mpk intragastric daily for 25 days
Experimental: In the experiment, 6- to 9-week-old female Lewis rats (Beijing Vital River) were used. Each group consisted of 6 rats, and they were given the cell wall peptidoglycan complexes of Streptococcus and several other species of bacteria by intraperitoneal administration (2-3 mg per rat) on D1, and were given the control compound (15 mpk) and the compound of formula I (15 mpk) by intragastric administration daily for 25 consecutive days. The arthritis in rats was scored in different phases. The scoring criteria are as follows: […] The scoring criteria are as follows: 0 points, no redness and swelling; 1 point, 1-2 red and swollen interphalangeal joints; 2 points, 3-4 red and swollen interphalangeal joints; 3 points, more than 4 red and swollen interphalangeal joints; 4 points, severe redness and swelling in toes or fingers to ankle joints or wrist joints.

[4] = Solubility tests in water, SGF, FaSSIF, FeSSIF at 37° C. (Example 5); type: physicochemical; conditions: for solubility at 1 h / solubility at 24 h: 37 °C, thermodynamic from solid; for solubility at 1 h: read-out: Solubility (mg/mL) (1 h); for solubility at 24 h: read-out: Solubility (mg/mL) (24 h)
Experimental: Experimental procedures: 30 mg (in water) or 15 mg of a sample was weighed out and added to a 4 mL vial; 3 mL of a medium to be tested (water, SGF, FaSSIF, or FeSSIF) was added; the mixture was continuously stirred at 37° C.; 0.5 mL of the sample was separately collected at 1 h and 24 h; centrifugation was performed at 12000 rpm for 10 min; the supernatant was diluted with 50% aqueous acetonitrile solution to an appropriate multiple; and the concentration of the supernatant was determined.
Control and linearity: 10 mg of the compound of formula I was weighed out and added to a 50 mL volumetric flask, 50% aqueous acetonitrile solution was added for dissolution, and the mixture was diluted to volume. Two parts were prepared in parallel. The control of the compound of formula I was taken and diluted with 50% aqueous acetonitrile solution to 100 μg/mL, 50 μg/mL, and 10 μg/mL, 5 μL of the sample was injected, and a standard curve was plotted.

[5] = SGF, simulated gastric fluid, SGF

COc1cc(C)c2[nH]ccc2c1CN1CC[C@H](OCC2CC2)C[C@H]1c1ccc(C(=O)O)cc1 [Compound of formula I]
MMS (monkey) Remaining (T = 90 min) [1]: 93.32% | Rmax (RU) (Complement factor B; test compound 500 μM, 25° C., 1:1 binding model): 274.2 RU | Binding capacity to the target protein (in words) (Complement factor B; versus control compound): significantly superior to that of the control compound | Inhibitory activity against complement factor B in human serum (in words) [2]: significantly better inhibitory activity against complement factor B in human serum than that of the control compound | Arthritis score (in words, FIG. 23) [3]: can improve the arthritis score | Effect on arthritis score versus control compound (in words) [3]: significantly better effect than that of the control compound | Final pH ([4]; FaSSIF): 6.44 | Solubility (mg/mL) (1 h) ([4]; FaSSIF): 0.22 mg/mL | Solubility (mg/mL) (24 h) ([4]; FaSSIF): 0.19 mg/mL | solubility at 1 h ([4]; FeSSIF, fessif, FeSSIF): 0.37 mg/mL | solubility at 24 h ([4]; FeSSIF, fessif, FeSSIF): 0.35 mg/mL | Final pH ([4]; FessIF): 5.03 | Final pH ([4]; SGF): 1.74 | solubility at 1 h [4, 5]: 5.51 mg/mL | solubility at 24 h [4, 5]: 5.48 mg/mL | Final pH ([4]; Water): 8.73 | Solubility (mg/mL) (1 h) ([4]; Water): 0.37 mg/mL | Solubility (mg/mL) (24 h) ([4]; Water): 0.31 mg/mL
